Test results from patent publication US20230346952A1, “CANNABINOID GLYCOSIDE PRODRUGS AND METHODS OF SYNTHESIS” (priority 2015, published 2023).
Where two headings read alike, the source gives them in different places.

Legend:
[1] = target: T1, safety screen panel of human pharmacological targets (Homo sapiens, UniProt P04150); assay: biochemical; conditions: read-out: percent inhibition: GR (h) (agonist radioligand)
T1 sequence (P04150 1-777): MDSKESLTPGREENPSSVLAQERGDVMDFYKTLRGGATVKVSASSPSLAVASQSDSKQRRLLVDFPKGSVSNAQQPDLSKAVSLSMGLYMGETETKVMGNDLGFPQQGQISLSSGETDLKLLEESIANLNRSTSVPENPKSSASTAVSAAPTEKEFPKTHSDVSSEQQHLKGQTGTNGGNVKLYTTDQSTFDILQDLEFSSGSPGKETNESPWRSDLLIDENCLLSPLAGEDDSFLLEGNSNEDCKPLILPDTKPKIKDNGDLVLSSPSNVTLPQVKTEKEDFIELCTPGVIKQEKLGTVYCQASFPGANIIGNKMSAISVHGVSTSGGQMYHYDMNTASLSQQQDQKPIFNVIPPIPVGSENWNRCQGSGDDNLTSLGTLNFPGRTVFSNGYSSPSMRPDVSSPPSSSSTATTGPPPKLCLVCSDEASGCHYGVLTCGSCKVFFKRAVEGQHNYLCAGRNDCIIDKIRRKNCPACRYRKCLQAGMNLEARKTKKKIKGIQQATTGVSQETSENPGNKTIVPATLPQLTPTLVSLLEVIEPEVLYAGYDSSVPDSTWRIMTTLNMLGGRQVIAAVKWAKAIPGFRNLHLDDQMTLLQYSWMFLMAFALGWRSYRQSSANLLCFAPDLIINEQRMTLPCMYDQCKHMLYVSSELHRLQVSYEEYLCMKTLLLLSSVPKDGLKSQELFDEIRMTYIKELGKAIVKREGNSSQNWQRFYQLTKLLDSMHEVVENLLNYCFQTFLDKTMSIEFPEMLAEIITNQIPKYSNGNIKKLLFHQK

[2] = target: safety screen panel of human pharmacological targets (Homo sapiens, UniProt P35367); assay: biochemical; conditions: read-out: percent inhibition: H1 (h) (antagonist radioligand)
Chain of safety screen panel of human pharmacological targets (Homo sapiens, UniProt P35367) (P35367 whole entry): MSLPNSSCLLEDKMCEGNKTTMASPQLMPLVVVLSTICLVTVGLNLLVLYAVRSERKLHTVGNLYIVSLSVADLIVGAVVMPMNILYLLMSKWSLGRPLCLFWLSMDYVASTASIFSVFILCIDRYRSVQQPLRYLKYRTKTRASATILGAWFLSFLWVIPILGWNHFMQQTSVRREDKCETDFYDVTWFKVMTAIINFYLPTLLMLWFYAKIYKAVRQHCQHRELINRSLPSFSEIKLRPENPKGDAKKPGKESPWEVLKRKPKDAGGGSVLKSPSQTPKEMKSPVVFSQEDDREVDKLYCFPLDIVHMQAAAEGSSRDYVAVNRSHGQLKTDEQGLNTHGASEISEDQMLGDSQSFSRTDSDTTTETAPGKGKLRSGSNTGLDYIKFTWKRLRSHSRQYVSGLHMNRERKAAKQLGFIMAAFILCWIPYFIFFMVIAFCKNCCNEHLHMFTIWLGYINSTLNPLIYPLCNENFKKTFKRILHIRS

[3] = target: safety screen panel of human pharmacological targets (Homo sapiens, UniProt P06239); assay: biochemical; conditions: read-out: percent inhibition: Lck kinase (h)
Chain of safety screen panel of human pharmacological targets (Homo sapiens, UniProt P06239) (P06239 whole entry): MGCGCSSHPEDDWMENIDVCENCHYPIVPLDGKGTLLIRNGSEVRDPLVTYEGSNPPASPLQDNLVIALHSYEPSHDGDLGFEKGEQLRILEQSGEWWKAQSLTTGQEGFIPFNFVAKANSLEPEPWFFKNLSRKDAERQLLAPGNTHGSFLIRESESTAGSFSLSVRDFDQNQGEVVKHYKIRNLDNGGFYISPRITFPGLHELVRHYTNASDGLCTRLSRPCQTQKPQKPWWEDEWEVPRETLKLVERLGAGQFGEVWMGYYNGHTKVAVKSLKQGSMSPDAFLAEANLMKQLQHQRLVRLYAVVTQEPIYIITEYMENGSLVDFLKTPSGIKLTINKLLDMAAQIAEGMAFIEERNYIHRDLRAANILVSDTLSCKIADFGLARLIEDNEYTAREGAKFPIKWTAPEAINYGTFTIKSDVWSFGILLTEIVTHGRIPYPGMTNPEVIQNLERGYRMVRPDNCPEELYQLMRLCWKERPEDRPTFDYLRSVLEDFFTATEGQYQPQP

[4] = target: T2, safety screen panel of human pharmacological targets (Homo sapiens, UniProt P08172); assay: biochemical; conditions: read-out: percent inhibition: M2 (h) (antagonist radioligand)
T2 sequence (P08172 1-466): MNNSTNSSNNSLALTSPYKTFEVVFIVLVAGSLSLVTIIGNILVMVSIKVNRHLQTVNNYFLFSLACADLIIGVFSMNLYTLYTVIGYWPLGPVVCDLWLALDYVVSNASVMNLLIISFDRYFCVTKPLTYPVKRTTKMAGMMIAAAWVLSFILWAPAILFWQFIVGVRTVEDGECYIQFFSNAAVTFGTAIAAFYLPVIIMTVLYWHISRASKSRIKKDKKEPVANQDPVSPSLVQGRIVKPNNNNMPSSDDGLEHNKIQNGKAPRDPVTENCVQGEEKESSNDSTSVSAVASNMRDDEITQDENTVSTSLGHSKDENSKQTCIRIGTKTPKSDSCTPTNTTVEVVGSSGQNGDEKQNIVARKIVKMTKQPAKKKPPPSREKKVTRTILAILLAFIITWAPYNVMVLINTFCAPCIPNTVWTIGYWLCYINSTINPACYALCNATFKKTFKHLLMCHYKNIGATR

[5] = target: T3, safety screen panel of human pharmacological targets (Homo sapiens, UniProt P11229); assay: biochemical; conditions: read-out: percent inhibition: M1 (h) (antagonist radioligand)
T3 sequence (P11229 1-460): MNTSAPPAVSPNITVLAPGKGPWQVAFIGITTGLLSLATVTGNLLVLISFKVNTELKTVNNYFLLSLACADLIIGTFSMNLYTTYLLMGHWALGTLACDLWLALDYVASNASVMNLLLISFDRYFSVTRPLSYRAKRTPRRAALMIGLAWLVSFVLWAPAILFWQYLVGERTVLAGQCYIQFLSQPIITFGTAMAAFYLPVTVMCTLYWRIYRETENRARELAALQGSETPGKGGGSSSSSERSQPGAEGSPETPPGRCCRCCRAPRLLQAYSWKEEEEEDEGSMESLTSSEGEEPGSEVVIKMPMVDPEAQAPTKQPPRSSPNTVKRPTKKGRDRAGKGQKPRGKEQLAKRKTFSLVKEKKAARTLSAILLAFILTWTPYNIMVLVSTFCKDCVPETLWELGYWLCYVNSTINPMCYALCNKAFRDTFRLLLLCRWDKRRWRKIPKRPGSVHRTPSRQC

[6] = target: safety screen panel of human pharmacological targets (Homo sapiens, UniProt P29274); assay: biochemical; conditions: read-out: percent inhibition: A2A (h) (agonist radioligand)
Chain of safety screen panel of human pharmacological targets (Homo sapiens, UniProt P29274) (P29274 whole entry): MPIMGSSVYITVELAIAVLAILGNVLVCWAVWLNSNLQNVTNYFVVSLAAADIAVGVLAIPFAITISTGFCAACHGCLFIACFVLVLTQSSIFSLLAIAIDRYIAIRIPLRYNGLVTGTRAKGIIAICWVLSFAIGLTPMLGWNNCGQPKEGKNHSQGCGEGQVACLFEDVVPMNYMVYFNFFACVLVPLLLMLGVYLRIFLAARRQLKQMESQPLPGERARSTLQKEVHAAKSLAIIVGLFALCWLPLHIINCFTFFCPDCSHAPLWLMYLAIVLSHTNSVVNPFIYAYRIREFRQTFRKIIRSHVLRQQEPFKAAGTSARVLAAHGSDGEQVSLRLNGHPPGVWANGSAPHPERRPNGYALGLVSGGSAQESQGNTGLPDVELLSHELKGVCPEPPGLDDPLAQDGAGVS

[7] = target: safety screen panel of human pharmacological targets (Homo sapiens, UniProt P37288); assay: biochemical; conditions: read-out: percent inhibition: V1a (h) (agonist radioligand)
Chain of safety screen panel of human pharmacological targets (Homo sapiens, UniProt P37288) (P37288 whole entry): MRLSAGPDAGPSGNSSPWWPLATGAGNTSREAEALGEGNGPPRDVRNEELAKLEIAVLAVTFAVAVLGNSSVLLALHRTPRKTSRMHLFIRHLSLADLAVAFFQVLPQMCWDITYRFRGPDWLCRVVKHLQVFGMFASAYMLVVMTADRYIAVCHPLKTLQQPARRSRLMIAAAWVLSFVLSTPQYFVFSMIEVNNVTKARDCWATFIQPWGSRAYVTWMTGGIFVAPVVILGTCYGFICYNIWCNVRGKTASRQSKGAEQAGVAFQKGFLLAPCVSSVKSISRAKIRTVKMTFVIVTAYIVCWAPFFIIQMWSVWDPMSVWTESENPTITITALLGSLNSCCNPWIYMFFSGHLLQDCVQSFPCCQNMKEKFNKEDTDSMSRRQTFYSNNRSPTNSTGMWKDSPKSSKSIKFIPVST

[8] = target: safety screen panel of human pharmacological targets (Rattus norvegicus, UniProt P34975); assay: biochemical; conditions: read-out: percent inhibition: kappa (KOP) (agonist radioligand)
Chain of safety screen panel of human pharmacological targets (Rattus norvegicus, UniProt P34975) (P34975 whole entry): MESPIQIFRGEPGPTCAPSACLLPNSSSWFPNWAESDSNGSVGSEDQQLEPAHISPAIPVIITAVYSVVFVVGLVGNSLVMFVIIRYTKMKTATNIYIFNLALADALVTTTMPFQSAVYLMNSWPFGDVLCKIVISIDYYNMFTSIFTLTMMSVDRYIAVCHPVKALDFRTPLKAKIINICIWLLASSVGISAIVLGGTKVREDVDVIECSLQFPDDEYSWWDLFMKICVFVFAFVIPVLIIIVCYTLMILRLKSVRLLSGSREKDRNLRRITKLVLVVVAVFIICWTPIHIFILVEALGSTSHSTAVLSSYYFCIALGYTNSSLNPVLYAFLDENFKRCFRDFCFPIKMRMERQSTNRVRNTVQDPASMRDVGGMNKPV

[9] = 1,000 mg/kg mixed glycosides by oral gavage; 6 hours; HPLC
[10] = test system: safety screen panel of human pharmacological targets
[11] = target: safety screen panel of human pharmacological targets (Homo sapiens, UniProt Q12809)
Chain of safety screen panel of human pharmacological targets (Homo sapiens, UniProt Q12809) (Q12809 whole entry): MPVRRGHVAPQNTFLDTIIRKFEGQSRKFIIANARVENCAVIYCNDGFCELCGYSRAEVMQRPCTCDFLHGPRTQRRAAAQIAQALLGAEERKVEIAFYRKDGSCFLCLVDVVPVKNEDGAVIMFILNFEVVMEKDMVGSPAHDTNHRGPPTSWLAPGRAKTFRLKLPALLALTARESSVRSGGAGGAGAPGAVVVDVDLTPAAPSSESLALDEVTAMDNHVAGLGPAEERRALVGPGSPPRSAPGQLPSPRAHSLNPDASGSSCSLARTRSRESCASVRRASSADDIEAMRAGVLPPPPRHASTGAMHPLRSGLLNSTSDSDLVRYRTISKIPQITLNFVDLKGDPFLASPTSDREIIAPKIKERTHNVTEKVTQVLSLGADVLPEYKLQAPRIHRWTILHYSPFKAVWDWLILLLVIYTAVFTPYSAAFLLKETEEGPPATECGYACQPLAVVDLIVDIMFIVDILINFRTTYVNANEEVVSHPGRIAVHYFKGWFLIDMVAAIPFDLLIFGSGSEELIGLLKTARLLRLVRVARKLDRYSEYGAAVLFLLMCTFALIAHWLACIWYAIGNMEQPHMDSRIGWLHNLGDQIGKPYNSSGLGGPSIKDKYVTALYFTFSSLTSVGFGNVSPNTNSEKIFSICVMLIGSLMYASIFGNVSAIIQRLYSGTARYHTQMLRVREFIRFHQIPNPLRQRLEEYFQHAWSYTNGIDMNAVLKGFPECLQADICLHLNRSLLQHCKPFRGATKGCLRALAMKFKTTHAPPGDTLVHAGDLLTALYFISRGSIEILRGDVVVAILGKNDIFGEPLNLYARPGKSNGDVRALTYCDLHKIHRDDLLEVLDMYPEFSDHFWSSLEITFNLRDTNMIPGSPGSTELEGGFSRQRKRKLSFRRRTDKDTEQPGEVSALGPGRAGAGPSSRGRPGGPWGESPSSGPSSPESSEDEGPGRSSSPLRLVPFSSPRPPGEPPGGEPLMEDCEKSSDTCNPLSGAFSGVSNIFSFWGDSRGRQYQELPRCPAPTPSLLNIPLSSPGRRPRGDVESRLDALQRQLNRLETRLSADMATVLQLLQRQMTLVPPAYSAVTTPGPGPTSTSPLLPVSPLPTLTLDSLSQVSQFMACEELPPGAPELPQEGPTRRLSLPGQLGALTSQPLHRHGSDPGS

[12] = test system: Lallzyme Beta™ (Lallemand); assay: In vitro digestion with Lallzyme Beta; conditions: 5 mg/ml Lallzyme Beta, 20 mM citrate buffer pH 4.0, 44° C.; HPLC
[13] = Rat plasma toxicokinetics post VB311 administration at 1,000 mg/kg; conditions: for relative amount in plasma: label = analyte
[14] = 24 hours post VB311 oral gavage
[15] = 10 micromolar test article, Adrenergic a1A receptor
[16] = 10 micromolar test article, Adrenergic α2A receptor
[17] = 10 micromolar test article, Benzodiazapine GABA channel
[18] = 10 micromolar test article, Calcium Channel L-Type, Dihydropyridine
[19] = 10 micromolar test article, Dopamine D2S receptor
[20] = 10 micromolar test article, N-Methyl-D-aspartate
[21] = 10 micromolar test article, Phosphodiesterase 4D2
[22] = 10 micromolar test article, Sodium channel
[23] = 10 micromolar test article, Voltage-gated potassium channel
[24] = 10 micromolar test article, results greater than 50% deemed significant

Row | SMILES | inhibition at 10 µM [1] | inhibition at 10 µM [2] | inhibition at 10 µM [3] | inhibition at 10 µM [4] | inhibition at 10 µM [5] | inhibition at 10 µM [6] | inhibition at 10 µM [7] | inhibition at 10 µM [8] | change of share of total THC-glycosides in large intestine extracts versus small intestine extracts [9] | change of share of total THC-glycosides in small intestine extracts versus administered mixture [9] | digestion by Lallzyme Beta (extent / products) [12] | relative amount in plasma ([13]; 1 hour post VB311 oral gavage) | relative amount in plasma ([13]; 2 hours post VB311 oral gavage) | relative amount in plasma ([13]; 6 hours post VB311 oral gavage) | relative amount in plasma [13, 14] | percent inhibition: alpha 1A(h) (antagonist radioligand) [10, 15] | percent inhibition: alpha 2A (h) (antagonist radioligand) [10, 16] | percent inhibition: BZD (central) (agonist radioligand) [10, 17] | percent inhibition: Ca2+ channel (L. dihydropyridine site) (antagonist radioligand) [10, 18] | percent inhibition: D2S (h) (agonist radioligand) [10, 19] | other results
1 | CCCCCc1cc(O)c2c(c1)OC(C)(C)[C@@H]1CCC(C)=C[C@@H]21 [VB301, Δ9-Terahydrocannabinol, reference compound] | 20% | 8% | 15% | 21% | 20% | 63% | -2% | 92% | appreciable amounts | below the limit of detection |  |  |  |  |  |  |  |  |  |  | percent inhibition: BZD (central) (agonist radioligand) [10]: 2%; percent inhibition: Ca2+ channel (L. dihydropyridine site) (antagonist radioligand) [10]: 59%; percent inhibition: D2S (h) (agonist radioligand) [10]: 13%; percent inhibition: KV channel (antagonist radioligand) [10]: 5%; percent inhibition: NMDA (antagonist radioligand) [10]: 10%; percent inhibition: Na+ channel (site 2) (antagonist radioligand) [10]: 65%; percent inhibition: PDE4D2 (h) [10]: -11%; percent inhibition: alpha 1A(h) (antagonist radioligand) [10]: 6%; percent inhibition: alpha 2A (h) (antagonist radioligand) [10]: 94%; number of the 44 pharmacological targets whose binding is significantly inhibited or disrupted ([10]; human): 16; percent inhibition: Potassium Channel hERG (human)- [3H] Dofetilide ([11]; human): 67%
2 | CCCCCc1cc(O[C@@H]2O[C@H](CO)[C@@H](O)[C@H](O)[C@H]2O)c2c(c1)OC(C)(C)[C@@H]1CCC(C)=C[C@@H]21 [VB302, Δ9THC-1-O-glucopyranoside] | -8% | 10% | -10% | 2% | -3% | -11% | 8% | 20% | further increases | increases | unable to hydrolyze VB302 back to THC | Minor quantities | Minor quantities | predominant THC-glycoside present in the plasma | relative abundance was greatly increased | -5% | 0% | -10% | 22% | 22% | plasma concentration of VB302 relative to VB311 ([13]; after VB311 administration): 2.2 x; percent inhibition: NMDA (antagonist radioligand) [10, 20]: 8%; percent inhibition: PDE4D2 (h) [10, 21]: -8%; percent inhibition: Na+ channel (site 2) (antagonist radioligand) [10, 22]: 13%; percent inhibition: KV channel (antagonist radioligand) [10, 23]: 1%; number of the 44 pharmacological targets whose binding is significantly inhibited or disrupted [10, 24]: did not significantly alter any of the targets; percent inhibition: Potassium Channel hERG (human)- [3H] Dofetilide ([11]; 10 micromolar test article): -23%
3 | CCCCCc1cc(O[C@@H]2O[C@H](CO[C@@H]3O[C@H](CO)[C@@H](O)[C@H](O)[C@H]3O)[C@@H](O[C@@H]3O[C@H](CO)[C@@H](O)[C@H](O)[C@H]3O)[C@H](O)[C@H]2O)c2c(c1)OC(C)(C)[C@@H]1CCC(C)=C[C@@H]21 [VB311] | 12% | -7% | 21% | -4% | -8% | -4% | 7% | 4% | further decreases | sharp decrease | very low activity | relative majority of glycosides present in the plasma | majority of glycosides present in the plasma | extensively modified | almost completely digested | -3% | 8% | 16% | -7% | -6% | percent inhibition: NMDA (antagonist radioligand) [10, 20]: 3%; percent inhibition: PDE4D2 (h) [10, 21]: -6%; percent inhibition: Na+ channel (site 2) (antagonist radioligand) [10, 22]: 5%; percent inhibition: KV channel (antagonist radioligand) [10, 23]: -5%; number of the 44 pharmacological targets whose binding is significantly inhibited or disrupted [10, 24]: did not significantly alter any of the targets; percent inhibition: Potassium Channel hERG (human)- [3H] Dofetilide ([11]; 10 micromolar test article): -10%
